From patent US10264789B2, “Rodentia animal repellent” (SUMITOMO CHEMICAL COMPANY, LIMITED, priority 2014, dated 2019)

Test system: female mouse (Jcl: ICR lineage)
Test: Repellent test (Experimental Example 1, two-section feed choice apparatus)
Format: in vivo
Conditions: drug amount 0.5 g on one sheet of filter paper
Procedure: Experimental Example 1 (Test Animal: Mouse)
The repellent test was performed using the repellent test apparatus described in FIG. 1. The apparatus has a residential section for the test animal in the center part, test section 1 and test section 2 setting food on both ends, test section 1 and the residential section are connected by a cylindrical path (diameter 0.05 m, length 2.08 m), and test section 2 and the residential section are also connected by a cylindrical path. The test section 1 and test section 2 are resin cuboid shape (0.68 m×0.40 m×0.32 m) containers, and the connection parts with the paths are opened. The residential section is also a resin cuboid shape (0.28 m×0.45 m×0.16 m), and the upper part made of an iron net so that the air can be taken in. An openable door is set in the connection part between the residential section and the path. Chips for floor:clean chip SP (manufactured by CLEA Japan, Inc.) were spread all over the bottom part of the residential section.
An acclimation operation was performed before the repellent test to make the test animal experienced with the test apparatus.
A weighed feed (solid food CE-2 for breeding and raising, manufactured by CLEA Japan, Inc.) (initial feed weight about 10 g) was set in each of test section 1 and test section 2, one female mouse (Jcl: ICR lineage) was placed in the residential section. One day later, the feed remaining in both test sections was weighed, and the eating rate was calculated by the following formula. When the eating rates of the both test sections are considerably different, the feed was changed to a new one, and the acclimation operation was repeated for several days until the eating rate was stabilized, and the eating rates of the both test sections became almost equivalent. eating rate (%)=100×amount eaten (g)/initial feed weight (g) <Repellent Test>
After completion of the acclimation operation, the same feed (solid food CE-2 for breeding and raising, manufactured by CLEA Japan, Inc.) (about 10 g) was placed in the both test sections. […] After 1 hr from setting the filter paper, the door of the connection part between the residential section and the path was closed, and thereafter the door was opened. After lapse of one day from the start of the test, the feed remaining in the both test sections was weighed. When the test was continued for not less than one day, the feed in the both test sections was exchanged every other day, and the remaining feed was weighed every day.
The repellent rate was calculated by the following formula. The test section where the filter paper (diameter 70 mm, manufactured by Advantec Toyo Kaisha, Ltd.) treated with the test compound was set was taken as the treatment section, and the test section where the filter paper was not set was taken as the non-treatment section. repellent rate (%)=100×(amount eaten in non-treatment section−amount eaten in treatment section)/(amount eaten in non-treatment section+amount eaten in treatment section)

| SMILES | repellent rate (%) (number of observation days 1) | repellent rate (%) (number of observation days 3) |
| --- | --- | --- |
| c1ccc2scnc2c1 [Comparison compound C, reference compound] | 4 | – |
| Sc1nc2ccccc2s1 [comparison compound A, reference compound] | 0 | – |
| c1ccc(-c2nc3ccccc3s2)cc1 [comparison compound B, reference compound] | 0 | – |
| CC(C)Cc1nc2ccccc2s1 [present compound 5, 2-isobutyl-1,3-benzothiazole] | 94 | – |
| FC(F)(F)c1nc2ccccc2s1 [present compound 6, 2-trifluoromethyl-1,3-benzothiazole] | 100 | – |
| Cc1nc2c(C)cccc2s1 [present compound 13, 2,4-dimethyl-1,3-benzothiazole] | 100 | 100 |
| CC1(C)Nc2ccccc2S1 [present compound 14, 2,2-dimethyl-2,3-dihydro-1,3-benzothiazole] | 100 | 92 |
